Assays:
[1] = test system: Liver microsomes; assay: Half life in rat liver microsome at 0.2 mg/ml; format: ADME
[2] = biological target: C-C chemokine receptor type 5 (Homo sapiens, UniProt P51681); assay: Antagonist activity at human CCR5 receptor expressed in CHO cells assessed as inhibition of MIP-1-alpha-stmulated calcium mobilization; format: functional, cell-based
[3] = test system: Liver microsomes; assay: (§1) Metabolic stability in rat liver microsomes assessed as compound remaining at 0.5 mg/ml after 15 mins; format: ADME, Microsome; conditions: microsomes, 0.25 h
[4] = test system: Human immunodeficiency virus 1; assay: microbe, parasite or virus in culture; conditions: Human immunodeficiency virus 1, BAL
Description: Antiviral activity against HIV1 BAL by p24 assay

[5] = (§2) AUC in rat at 30 mg/kg, po; format: ADME, organism-based, Plasma; set-up: dose 30 mg/kg, route oral; conditions: plasma
[6] = Half life in rat at 3 mg/kg, iv; format: ADME, organism-based; set-up: dose 3 mg/kg, route intravenous; conditions: in vivo
[7] = test system: Caco-2; assay: Apparent permeability from apical to basolateral side of human Caco-2 cells; format: ADME, cell-based
[8] = Aqueous solubility of the compound; format: physicochemical; conditions: buffer
[9] = test system: Caco-2; assay: Apparent permeability from basolateral to apical side of human Caco-2 cells; format: ADME, cell-based
[10] = test system: Rattus norvegicus; assay: AUC in rat at 3 mg/kg, iv; format: ADME, organism-based, Plasma; set-up: dose 3 mg/kg, route intravenous; conditions: in vivo
[11] = Clearance in rat at 3 mg/kg, iv; format: ADME, organism-based; set-up: dose 3 mg/kg, route intravenous; conditions: in vivo
[12] = Volume of distribution at steadt state in rat at 3 mg/kg, iv; conditions: in vivo
[13] = Cmax in rat at 30 mg/kg, po; format: ADME, organism-based; set-up: dose 30 mg/kg, route oral; conditions: in vivo
[14] = Oral bioavailability in rat at 30 mg/kg; format: ADME, organism-based; conditions: in vivo
[15] = Half life in rat at 30 mg/kg, po; format: ADME, organism-based; set-up: dose 30 mg/kg, route oral; conditions: in vivo
[16] = as §1; format: ADME, Microsome; conditions: liver microsomes, read-out: Stability
[17] = test system: Rattus norvegicus; assay: as §2; format: ADME, organism-based, Plasma; set-up: dose 30 mg/kg, route oral; conditions: in vivo

C-C chemokine receptor type 5, sequence (P51681 whole entry): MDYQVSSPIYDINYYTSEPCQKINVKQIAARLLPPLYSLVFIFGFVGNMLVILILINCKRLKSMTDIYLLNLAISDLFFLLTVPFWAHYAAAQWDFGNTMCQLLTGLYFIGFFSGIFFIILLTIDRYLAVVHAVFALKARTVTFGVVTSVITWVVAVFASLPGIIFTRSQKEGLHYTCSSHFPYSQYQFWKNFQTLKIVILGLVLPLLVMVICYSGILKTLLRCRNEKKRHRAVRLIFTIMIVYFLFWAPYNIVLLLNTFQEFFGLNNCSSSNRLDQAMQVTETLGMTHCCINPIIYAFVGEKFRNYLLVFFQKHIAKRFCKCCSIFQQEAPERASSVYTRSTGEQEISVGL

Row | SMILES | t1/2 [1] | IC50 [2] | Stability [3] | other results
1 | CC#CCN1C(=O)C(CC(C)C)NC(=O)C12CCN(Cc1ccc(Oc3ccccc3)cc1)CC2.Cl (racemic) | 15 min | 54 nM | – | –
2 | CCCCN1C(=O)C(CC2CCCCC2)NC(=O)C12CCN(c1ccc(C(=O)OCC)cc1)CC2 (racemic) | – | > 3000 nM | – | –
3 | CCCCN1C(=O)C(CC2CCCCC2)NC(=O)C12CCN(C(=O)OCc1ccccc1)CC2 (racemic) | – | 3000 nM | – | –
4 | CCCCN1C(=O)[C@H](CC2CCCCC2)NC(=O)C12CCN(Cc1ccc(Oc3ccc(S(N)(=O)=O)cc3)cc1)CC2.Cl | – | 28 nM | 24% | IC50 [4]: 10 nM
5 | CCCCN1C(=O)[C@H](CC(C)(C)C)NC(=O)C12CCN(Cc1ccc(Oc3ccccc3)cc1)CC2.Cl | 12 min | 79 nM | – | –
6 | CCCCN1C(=O)[C@H](CC2CCCCC2)NC(=O)C12CCN(Cc1nc(-c3ccccc3)oc1C)CC2 | – | 450 nM | – | –
7 | CC(C)CC1NC(=O)C2(CCN(Cc3ccc(Oc4ccccc4)cc3)CC2)N(CC(C)C)C1=O.Cl (racemic) | 15 min | 330 nM | – | –
8 | CCCCN1C(=O)C(CC2CCCCC2)NC(=O)C12CCN(Cc1c[nH]c(-c3ccccc3)n1)CC2 (racemic) | – | 160 nM | – | –
9 | CC(C)CC1NC(=O)C2(CCN(Cc3ccc(Oc4ccccc4)cc3)CC2)N(Cc2ccccc2)C1=O (racemic) | – | 300 nM | – | –
10 | CCCCN1C(=O)[C@H](CC2CCCCC2)NC(=O)C12CCN(Cc1ccc(Oc3ccc(NS(C)(=O)=O)cc3)cc1)CC2.Cl | – | 40 nM | 15% | –
11 | C/C=C/CN1C(=O)C(CC(C)C)NC(=O)C12CCN(Cc1ccc(Oc3ccccc3)cc1)CC2.Cl (racemic) | 14 min | 69 nM | – | –
12 | CCCCN1C(=O)[C@H](CC2CCCCC2)NC(=O)C12CCN(Cc1ccc(C(=O)c3ccccc3)cc1)CC2.Cl | – | 81 nM | 23% | –
13 | CCCCN1C(=O)[C@H](CC2CCCCC2)NC(=O)C12CCN(Cc1ccc(S(=O)(=O)c3ccccc3)cc1)CC2.Cl | – | 86 nM | 19% | –
14 | CCCCN1C(=O)C(CC2CCCCC2)NC(=O)C12CCN(Cc1csc(-c3ccccc3)n1)CC2 (racemic) | – | 570 nM | – | –
15 | CCCCN1C(=O)[C@H](CC2CCCCC2)NC(=O)C12CCN(Cc1ccc(Oc3ccc(OC)cc3)cc1)CC2.Cl | – | 130 nM | 34% | –
16 | CCCCN1C(=O)C(CC2CCCCC2)NC(=O)C12CCN(Cc1ccc(OC)cc1)CC2.Cl (racemic) | 8.3 min | – | – | –
17 | CCCCN1C(=O)[C@H](CC(C)C)NC(=O)C12CCN(Cc1ccc(Oc3ccccc3)cc1)CC2.Cl | 7.1 min | – | – | –
18 | CCCCN1C(=O)C(CCCC2CCCCC2)NC(=O)C12CCN(Cc1ccc(Oc3ccccc3)cc1)CC2.Cl (racemic) | 23 min | > 3000 nM | – | –

Row | SMILES | t1/2 [1] | IC50 [2] | Stability [3] | other results
19 | CCCCN1C(=O)[C@H](CC2CCCCC2)NC(=O)C12CCN(Cc1ccc(Oc3ccc(C)cc3)cc1)CC2.Cl | – | 79 nM | 48% | –
20 | CCCCN1C(=O)C(CC2CCCCC2)NC(=O)C12CCN(Cc1ccc(Oc3ccccc3)cc1)CC2.Cl (racemic) | 24 min | – | – | AUC [5]: 74.4 ng·h/mL; half-life [6]: 19.9 min; Papp [7]: 0.15 ×10⁻⁶ cm/s; solubility [8]: < 5 µM; Papp [9]: 0.27 ×10⁻⁶ cm/s; AUC [10]: 400 ng; clearance [11]: 113 mL/min/kg
21 | CC(C)CC1NC(=O)C2(CCN(Cc3ccc(Oc4ccccc4)cc3)CC2)N(CCC(C)O)C1=O.Cl (racemic) | 12 min | > 3000 nM | – | AUC [5]: 10500 ng·h/mL; Vd [12]: 0.145 L/kg; half-life [6]: 11.1 min; Cmax [13]: 7200 ng/mL; clearance [11]: 16 mL/min/kg; bioavailability [14]: 34.1%; half-life [15]: 48.4 min
22 | CCCCN1C(=O)C(CC(=O)OCc2ccccc2)NC(=O)C12CCN(Cc1ccc(Oc3ccccc3)cc1)CC2 (racemic) | – | 590 nM | – | –
23 | CCCCN1C(=O)[C@H](CC2CCCCC2)NC(=O)C12CCN(Cc1ccc(Sc3ccccc3)cc1)CC2.Cl | – | 170 nM | 38% | –
24 | CCCCN1C(=O)C(CCC)NC(=O)C12CCN(Cc1ccc(Oc3ccccc3)cc1)CC2.Cl (racemic) | 22 min | 50 nM | – | –
25 | CCCCN1C(=O)[C@H](CC2CCCCC2)NC(=O)C12CCN(Cc1ccc(Oc3ccc(C(=O)O)cc3)cc1)CC2.Cl | – | – | – | Papp [7]: 11 ×10⁻⁶ cm/s; solubility [8]: 29 µM; remaining at 0.25 h [16]: 22%; Papp [9]: 16.8 ×10⁻⁶ cm/s
26 | CCCCN1C(=O)[C@H](CC2CCCCC2)NC(=O)C12CCN(Cc1ccc(-c3cccnc3)cc1)CC2.Cl.Cl | – | 71 nM | 29% | –
27 | CCCCN1C(=O)[C@H](CC2CCCCC2)NC(=O)C12CCN(Cc1ccc(Oc3ccc(C(=O)NC)cc3)cc1)CC2.Cl | – | 33 nM | 4% | Papp [7]: 3.51 ×10⁻⁶ cm/s; solubility [8]: 6 µM; half-life [15]: 72.7 min
28 | CCCCN1C(=O)[C@H](CC2CCCCC2)NC(=O)C12CCN(Cc1ccc(C(=O)Nc3ccccc3)cc1)CC2.Cl | – | 57 nM | 29% | –
29 | CCCCN1C(=O)[C@H](CC2CCCCC2)NC(=O)C12CCN(Cc1ccc(Oc3ccc(F)cc3)cc1)CC2.Cl | – | 92 nM | 53% | –
30 | CCCCN1C(=O)[C@H](CC2CCCCC2)NC(=O)C12CCN(Cc1ccc(Oc3ccc(O)cc3)cc1)CC2.Cl | – | 42 nM | 22% | AUC [5]: 195 ng·h/mL; Papp [7]: 0.33 ×10⁻⁶ cm/s; solubility [8]: < 5 µM; Cmax [13]: 100 ng/mL; Papp [9]: 0.14 ×10⁻⁶ cm/s; half-life [15]: 205 min
31 | CCCCN1C(=O)C(CC2CCCCC2)NC(=O)C12CCN(Cc1c(C)nn(-c3ccccc3)c1C)CC2.Cl.Cl (racemic) | – | 35 nM | 23% | –
32 | CCCCN1C(=O)C(CC(=O)O)NC(=O)C12CCN(Cc1ccc(Oc3ccccc3)cc1)CC2 (racemic) | – | > 3000 nM | – | –
33 | CCCCN1C(=O)C(CC(C)C)NC(=O)C12CCN(Cc1ccc(Oc3ccccc3)cc1)CC2.Cl (racemic) | 12 min | – | – | AUC [17]: 290 ng·h/mL; half-life [6]: 13 min; Papp [7]: 1.51 ×10⁻⁶ cm/s; solubility [8]: 14 µM; Cmax [13]: 100 ng/mL; Papp [9]: 2.23 ×10⁻⁶ cm/s; AUC [10]: 372 ng; half-life [15]: 75.7 min
34 | CCCCN1C(=O)C(CC2CCCCC2)NC(=O)C12CCN(Cc1ccc(Oc3ccccc3)nc1)CC2.Cl.Cl (racemic) | – | 21 nM | 10% | –
35 | CCCCN1C(=O)C(CC2CCCC2)NC(=O)C12CCN(Cc1ccc(Oc3ccccc3)cc1)CC2.Cl (racemic) | 20 min | 52 nM | – | –
36 | CCCCN1C(=O)[C@H](CC2CCCCC2)NC(=O)C12CCN(CCc1ccc(Oc3ccccc3)cc1)CC2 | – | > 3000 nM | – | –

— ChEMBL document CHEMBL1177672, “Discovery of orally available spirodiketopiperazine-based CCR5 antagonists” (Bioorg Med Chem, 2010)
